{
  "source": "patent US20060228706A1",
  "about": "“Methods of diagnosing and treating diabetes and insulin resistance” (Metabolex, Inc., priority 2002, published 2006)",
  "key": {"[1]": {"tested_on": "3T3-L1 adipocytes", "assay": "Glucose transport analysis in 3T3-L1 adipocytes (2-deoxyglucose uptake), cells not expressing hP2RY1", "format": "cell-based, murine", "conditions": "basal glucose transport (no insulin), 2-MeSADP 1 μM for 6 hours, mean of 5 experiments", "description": "(§1) In some instances another analysis called “glucose transport” was used. This involves over-expressing the gene in either differentiated 3T3-L1 adipocytes or differentiated L6 myotubes and then monitoring the ability of insulin to stimulate glucose transport into these two cell types. A recombinant adenovirus encoding the human gene tagged with a FLAG epitope tag was prepared essentially as described in Zhou et al., Proc. Nat. Acad. Sci. USA. 95:2509-2514 (1998). 3T3-L1 adipocytes or L6 myotubes were infected with recombinant adenovirus expressing the human gene. A virus expressing an irrelevant protein was used as the control. Twenty four hours post infection the cells are stimulated with increasing concentrations of insulin and glucose transport into the cells determined by the counting the accumulation of a radiolabelled glucose analog (2-deoxyglucose) essentially as described in Kotani et al., Mol. Cell. Biol. 18:6971-6982 (1998), Fujishiro et al., J. Biol. Chem. 276:19800-19806 (2001), Ross et al., Biochem. Biophys. Res. Commun. 302:354-358 (2003)"}, "[2]": {"molecular_target": "T1, hP2RY1 (Homo sapiens, UniProt P47900)", "T1 construct": "expressed in transfected cells; host or cells: differentiated murine 3T3-L1 adipocytes (A2) or differentiated L6 myotubes (A4), infected with recombinant adenovirus", "T1 sequence (P47900 whole entry)": "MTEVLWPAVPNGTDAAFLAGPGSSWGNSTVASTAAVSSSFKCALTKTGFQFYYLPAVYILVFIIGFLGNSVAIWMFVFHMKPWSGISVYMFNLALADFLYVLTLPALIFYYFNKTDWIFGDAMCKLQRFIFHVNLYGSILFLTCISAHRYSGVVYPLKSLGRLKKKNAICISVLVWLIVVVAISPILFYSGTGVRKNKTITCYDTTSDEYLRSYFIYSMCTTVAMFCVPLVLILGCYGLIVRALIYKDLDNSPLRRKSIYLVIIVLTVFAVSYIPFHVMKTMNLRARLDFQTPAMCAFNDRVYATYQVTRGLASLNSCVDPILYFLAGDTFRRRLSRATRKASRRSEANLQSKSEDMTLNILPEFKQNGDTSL", "assay": "Glucose transport analysis in 3T3-L1 adipocytes over-expressing hP2RY1 (adenovirus)", "format": "cell-based", "description": "as §1"}, "[3]": {"tested_on": "L6 myotubes", "assay": "Glucose transport analysis in L6 myotubes (2-deoxyglucose uptake), cells not expressing hP2RY1", "format": "cell-based", "conditions": "basal glucose transport (no insulin), 2-MeSADP 1 μM for 6 hours", "description": "as §1"}, "[4]": {"molecular_target": "T1, hP2RY1", "assay": "Glucose transport analysis in L6 myotubes over-expressing hP2RY1 (adenovirus)", "format": "cell-based", "description": "as §1"}},
  "note": "Several values for one entry are separate records, joined by “and”; a condition that tells them apart may be missing. Identical values can stand only once.",
  "data": [
    {"smiles": "CSc1nc(N)c2ncn([C@@H]3O[C@H](COP(=O)(O)OP(=O)(O)O)[C@@H](O)[C@H]3O)c2n1", "note": "[2-MeSADP]", "values": [
      {"measurement": "Fold Change 1 (Basal plus 2-MeSADP)/(Basal no 2-MeSADP), Mean +/− SEM (n = 5)", "setting": "[1]", "value": "1.07 +/− 0.13"},
      {"measurement": "basal glucose transport, result in words", "setting": "[2]; 3T3-L1 adipocytes with or without hP2RY1", "value": "can be stimulated by a P2RY1 agonist but only when the hP2RY1 is expressed in the cells"},
      {"measurement": "Fold Change 2 (Basal plus P2RY1 plus 2-MeSADP)/(Basal no P2RY1 no 2-MeSADP), Mean +/− SEM (n = 5)", "setting": "[2]; basal glucose transport (no insulin), hP2RY1-expressing 3T3-L1 adipocytes, 2-MeSADP 1 μM for 6 hours, mean of 5 experiments", "value": "2.11 +/− 0.34"},
      {"measurement": "Fold Change 1 (Basal plus 2-MeSADP)/(Basal no 2-MeSADP), Mean (n = 2)", "setting": "[3]; mean of 2 experiments", "value": 0.97},
      {"measurement": "Fold Change 1 (Basal plus 2-MeSADP)/(Basal no 2-MeSADP)", "setting": "[3]; single experiments", "value": "0.99 and 0.95"},
      {"measurement": "basal glucose transport, result in words", "setting": "[4]; L6 myotubes with or without hP2RY1", "value": "can be stimulated by a P2RY1 agonist but only when the hP2RY1 is expressed in the cells"},
      {"measurement": "Fold Change 2 (Basal plus P2RY1 plus 2-MeSADP)/(Basal no P2RY1 no 2-MeSADP), Mean (n = 2)", "setting": "[4]; basal glucose transport (no insulin), hP2RY1-expressing L6 myotubes, 2-MeSADP 1 μM for 6 hours, mean of 2 experiments", "value": 1.81},
      {"measurement": "Fold Change 2 (Basal plus P2RY1 plus 2-MeSADP)/(Basal no P2RY1 no 2-MeSADP)", "setting": "[4]; basal glucose transport (no insulin), hP2RY1-expressing L6 myotubes, 2-MeSADP 1 μM for 6 hours, single experiments", "value": "1.71 and 1.91"}
    ]}
  ]
}
